Assay results published in patent US20220098203A1 (priority 2018, published 2022).
Read-outs that look alike come from different tables or passages of the source.

Key:
MAT2A homodimer = molecular target: T1, MAT2A homodimer (Homo sapiens, UniProt P31153); test: MAT2A biochemical assay (liberated phosphate, PiColorLock Gold); conditions: Table 5a, read-out: Enzyme Inhibition
T1 construct: inferred from the Ni sepharose purification and imidazole elution; made in house; host or cells: SF9 insect cells, recombinant baculovirus (Bac to Bac, pFASTBAC1)
Summary of the method: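 Baculovirus/Sf9-expressed, Ni-purified MAT2A homodimer preincubated with compound 60 min at 25 °C, then reacted 60 min at 25 °C with substrate mix of 500 μM ATP and 400 μM L-methionine, pH 7.0 (mix, not final levels). Phosphate released with SAM measured by PiColorLock Gold against phosphate standard curve.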

[1] = tested on: SAM in HCT116 MTAP-deleted cells; test: Cellular assay of target engagement (SAM), LC-MS/MS; type: cell-based, human; conditions: Homo sapiens, HCT-116, Table 5a, 72 h, read-out: Cell 72 h SAM Inhibition (MTAP −/−)
Protocol: Measurement of MAT2A activity in cells was made by direct quantitation of the abundance of the product of its enzymatic activity, SAM. Cancer cells were treated with candidate MAT2A inhibitors for a suitable incubation period, and the cells were then lysed using a reagent which quenched any further enzyme activity. Soluble metabolites including SAM were collected and SAM itself was directly measured from the lysate using quantitative LC-MS/MS.
A typical assay was performed using an HCT116 human colon carcinoma cell line which was genetically engineered to delete the MTAP gene (commercially available from Horizon Discovery). […] Cells were plated in 96-well dishes at appropriate cell density. Following 24 hours, cells were then treated with the candidate MAT2A inhibitor. […] Compound was then transferred to a working stock plate in cell culture media by adding 5 μL of compound in DMSO to 495 μL of cell culture media. This working stock was then added to cells via a further 5-fold dilution, by adding 25 μL of working stock to 100 μL of cells in culture media. Following compound addition, cells were incubated at 37° C./5% CO2 for 72 hrs.
To quantitate SAM levels following compound treatment, cells were gently washed once in ammonium carbonate buffer (75 mM at pH 7.4), placed on dry ice, and lysed with metabolite extraction buffer (80% cold methanol and 20% water (v/v) with acetic acid at 1M final concentration with 200 ng/mL deuterated d3-SAM as internal control). Following centrifugation at 4° C. at 3,200 rpm for 30 minutes, the supernatant was collected and stored at −80° C. until analysis by Liquid Chromatography with tandem Mass Spectrometry (LC-MS/MS). LC-MS/MS analysis was performed using an API6500 Mass Spectrometer (Sciex, Framingham, Mass., USA) operating in positive ion spray mode and equipped with a Waters UPLC Acquity (Waters, Milford, Mass., USA) BEH Amide column.

HCT116 MTAP-/- = test: Inhibition of cellular proliferation (Cell Titer Glo), HCT116 MTAP-/-; type: cell-based, human; conditions: Homo sapiens, HCT-116, 96 h, Table 5a, 4 days, read-out: 4 Day Relative Growth Inhibition (MTAP −/−)
Protocol: (§1) Test compound impact on cancer cell growth was assessed by treating cancer cells with compound for 4 days and then measuring proliferation using an ATP-based cell proliferation readout (Cell Titer Glo, Promega Corporation).
(§2) In a typical assay an isogenic pair of HCT116 human colon carcinoma cell lines which vary only in MTAP deletion status (HCT116 MTAP+/+ and HCT116 MTAP−/−) were plated in 96-well dishes at appropriate cell density. Following 24 hours, cells were then treated with the candidate MAT2A inhibitor. […] Compound was then transferred to a working stock plate in cell culture media by adding 5 μL of compound in DMSO to 495 μL of cell culture media. This working stock was then added to cells via a further 5-fold dilution, by adding 25 μL of working stock to 100 μL of cells in culture media. Following compound addition, cells were incubated at 37° C./5% CO2 for 4 days.
(§3) The plate was then covered with aluminum foil and shaken for 15 minutes to ensure complete mixing and full cell lysis. […] This luminescence measure was converted to a proliferation index by subtracting from each data point the ATP luminescence signal measured from a bank (no cells) well and dividing by the ATP luminescence signal measured in 0.2% DMSO control well adjusted for signal in blank well.

HCT116 MTAP+/+ = test: Inhibition of cellular proliferation (Cell Titer Glo), HCT116 MTAP+/+; type: cell-based; conditions: Homo sapiens, HCT-116, 96 h, Table 5a, 4 days, read-out: 4 Day Relative Growth Inhibition (MTAP +/+)
Protocol: as §1, §2, §3

T1 sequence (P31153 whole entry): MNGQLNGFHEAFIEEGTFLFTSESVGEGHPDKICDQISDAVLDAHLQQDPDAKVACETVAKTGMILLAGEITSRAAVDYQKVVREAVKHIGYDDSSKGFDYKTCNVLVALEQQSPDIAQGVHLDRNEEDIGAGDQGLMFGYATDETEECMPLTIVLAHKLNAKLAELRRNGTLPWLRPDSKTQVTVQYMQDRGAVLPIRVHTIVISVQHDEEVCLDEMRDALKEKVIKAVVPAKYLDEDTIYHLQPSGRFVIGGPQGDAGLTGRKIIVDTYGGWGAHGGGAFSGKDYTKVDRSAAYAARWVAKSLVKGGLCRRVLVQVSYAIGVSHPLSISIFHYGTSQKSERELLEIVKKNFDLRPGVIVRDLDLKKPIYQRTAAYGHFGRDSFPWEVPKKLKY

Row | IC50 (MAT2A homodimer; MAT2A biochemical assay) [nM] | IC50 [1] [nM] | IC50 (HCT116 MTAP-/-) [nM] | IC50 (HCT116 MTAP+/+) [nM] | IC50 (MAT2A homodimer; given as a bound, not a class symbol) [nM] | Compound
1 | < 100 | 100 to 1000 | 100 to 1000 | > 1000 |  | CCOc1ccc2c(n1)N(c1ccc(OC(F)F)cc1)C(=O)N(c1ccc3nccn3c1)C2 [Example 101, 1-(4-(difluoromethoxy)phenyl)-7-ethoxy-3-(imidazo[1,2-a]pyridin-6-yl)-3,4-dihydropyrido[2,3-d]pyrimidin-2(1H)-one]
2 | < 100 | < 100 | 100 to 1000 | > 1000 |  | [2H]C([2H])([2H])Oc1ccc(N2C(=O)N(c3ccc4ncsc4c3)Cc3ccc(OCC(F)F)nc32)cc1 [Example 102, 3-(benzo[d]thiazol-6-yl)-7-(2,2-difluoroethoxy)-1-(4-(methoxy-d3)phenyl)-3,4-dihydropyrido[2,3-d]pyrimidin-2(1H)-one]
3 | < 100 | < 100 | < 100 | > 1000 |  | [2H]C([2H])([2H])Oc1ccc(N2C(=O)N(c3ccc4nn(C)c(OC([2H])([2H])[2H])c4c3)Cc3ccc(OCC(F)F)nc32)cc1 [Example 103, 7-(2,2-difluoroethoxy)-3-(3-(methoxy-d3)-2-methyl-2H-indazol-5-yl)-1-(4-(methoxy-d3)phenyl)-3,4-dihydropyrido[2,3-d]pyrimidin-2(1H)-one]
4 | < 100 | < 100 | < 100 | 100 to 1000 |  | [2H]C([2H])([2H])Oc1ccc(N2C(=O)N(c3ccc4nn(C)c(OC)c4c3)Cc3ccc(OCC(F)F)nc32)cc1 [Example 104, 7-(2,2-difluoroethoxy)-3-(3-methoxy-2-methyl-2H-indazol-5-yl)-1-(4-(methoxy-d3)phenyl)-3,4-dihydropyrido[2,3-d]pyrimidin-2(1H)-one]
5 | < 100 | < 100 | < 100 | 100 to 1000 |  | [2H]C([2H])([2H])Oc1ccc(N2C(=O)N(c3ccc4nn(C)c(C)c4c3)Cc3ccc(OCC(F)F)nc32)cc1 [Example 105, 7-(2,2-difluoroethoxy)-3-(2,3-dimethyl-2H-indazol-5-yl)-1-(4-(methoxy-d3)phenyl)-3,4-dihydropyrido[2,3-d]pyrimidin-2(1H)-one]
6 | < 100 | < 100 | 100 to 1000 | > 1000 |  | CCOc1ccc2c(n1)N(c1ccc(OC(F)F)cc1)C(=O)N(c1ccn3nccc3c1)C2 [Example 106, 1-(4-(difluoromethoxy)phenyl)-7-ethoxy-3-(pyrazolo[1,5-a]pyridin-5-yl)-3,4-dihydropyrido[2,3-d]pyrimidin-2(1H)-one]
7 | < 100 | 100 to 1000 | 100 to 1000 | > 1000 |  | CCOc1ccc2c(n1)N(c1ccc(OC(F)F)cc1)C(=O)N(c1ccc(=O)n(C)c1)C2 [Example 107, 1-(4-(difluoromethoxy)phenyl)-7-ethoxy-3-(1-methyl-6-oxo-1,6-dihydropyridin-3-yl)-3,4-dihydropyrido[2,3-d]pyrimidin-2(1H)-one]
8 | < 100 | 100 to 1000 | 100 to 1000 | > 1000 |  | CCOc1ccc2c(n1)N(c1ccc(OC(F)F)cc1)C(=O)N(c1ccc3nncn3c1)C2 [Example 108, 3-([1,2,4]triazolo[4,3-a]pyridin-6-yl)-1-(4-(difluoromethoxy)phenyl)-7-ethoxy-3,4-dihydropyrido[2,3-d]pyrimidin-2(1H)-one]
9 | < 100 | < 100 | 100 to 1000 | > 1000 |  | CCOc1ccc2c(n1)N(c1ccc(OC(F)F)cc1)C(=O)N(c1ccc3nnn(C)c3c1)C2 [Example 109]
10 | < 100 | < 100 | 100 to 1000 | > 1000 |  | CCOc1ccc2c(n1)N(c1ccc(OC(F)F)cc1)C(=O)N(c1ccc3nn(C)nc3c1)C2 [Example 110, 1-(4-(difluoromethoxy)phenyl)-7-ethoxy-3-(2-methyl-2H-benzo[d][1,2,3]triazol-5-yl)-3,4-dihydropyrido[2,3-d]pyrimidin-2(1H)-one]
11 | < 100 | 100 to 1000 | 100 to 1000 | > 1000 |  | CCOc1ccc2c(n1)N(c1ccc(OC(F)F)cc1)C(=O)N(c1ccc3ncccc3c1)C2 [Example 112, 1-(4-(difluoromethoxy)phenyl)-7-ethoxy-3-(quinolin-6-yl)-3,4-dihydropyrido[2,3-d]pyrimidin-2(1H)-one]
12 | < 100 | < 100 | < 100 | > 1000 |  | COc1ccc(N2Cc3ccc(NCC(F)(F)F)nc3N(c3ccc(-c4ncn[nH]4)cc3)C2=O)cc1 [Example 113, 1-(4-(1H-1,2,4-triazol-5-yl)phenyl)-3-(4-methoxyphenyl)-7-((2,2,2-trifluoroethyl)amino)-3,4-dihydropyrido[2,3-d]pyrimidin-2(1H)-one]
13 | < 100 | < 100 | < 100 | > 1000 |  | Cn1cc2cc(N3Cc4ccc(NCC(F)(F)F)nc4N(c4ccc(-c5nc[nH]n5)cc4)C3=O)ccc2n1 [Example 114, 1-(4-(1H-1,2,4-triazol-3-yl)phenyl)-3-(2-methyl-2H-indazol-5-yl)-7-((2,2,2-trifluoroethyl)amino)-3,4-dihydropyrido[2,3-d]pyrimidin-2(1H)-one]
14 | < 100 | 100 to 1000 | < 100 | > 1000 |  | [2H]C([2H])([2H])Oc1ccc(N2C(=O)N(c3ccc4nn(C5CC5)cc4c3)Cc3ccc(OCC(F)F)nc32)cc1 [Example 115, 3-(2-cyclopropyl-2H-indazol-5-yl)-7-(2,2-difluoroethoxy)-1-(4-methoxy-d3-phenyl)-3,4-dihydropyrido[2,3-d]pyrimidin-2(1H)-one]
15 | < 100 | 100 to 1000 | < 100 | > 1000 |  | [2H]C([2H])([2H])Oc1ccc(N2C(=O)N(c3ccc4nn(C(C)C)cc4c3)Cc3ccc(OCC(F)F)nc32)cc1 [Example 118, 7-(2,2-difluoroethoxy)-3-(2-isopropyl-2H-indazol-5-yl)-1-(4-methoxy-d3-phenyl)-3,4-dihydropyrido[2,3-d]pyrimidin-2(1H)-one]
16 | < 100 | < 100 | 100 to 1000 | > 1000 |  | [2H]C([2H])([2H])Oc1ccc(N2C(=O)N(c3ccc4nn(CC(F)F)cc4c3)Cc3ccc(OCC(F)F)nc32)cc1 [Example 119, 7-(2,2-difluoroethoxy)-3-(2-(2,2-difluoroethyl)-2H-indazol-5-yl)-1-(4-methoxy-d3-phenyl)-3,4-dihydropyrido[2,3-d]pyrimidin-2(1H)-one]
17 | < 100 | 100 to 1000 | 100 to 1000 |  |  | COc1ccc(N2C(=O)N(c3ccc4nccnc4c3)Cc3cnc(NCC(F)(F)F)nc32)cc1 [Example 233, 1-(4-methoxyphenyl)-3-(quinoxalin-6-yl)-7-((2,2,2-trifluoroethyl)amino)-3,4-dihydropyrimido[4,5-d]pyrimidin-2(1H)-one]
18 | < 100 |  |  |  |  | [2H]C([2H])([2H])Oc1ccc(N2C(=O)N(c3ccc4nc(C)n(C)c4c3)Cc3c(C)nc(NCC(F)(F)F)nc32)cc1 [Example 435, 3-(1,2-dimethyl-1H-benzo[d]imidazol-6-yl)-1-(4-(methoxy-d3)phenyl)-5-methyl-7-((2,2,2-trifluoroethyl)amino)-3,4-dihydropyrimido[4,5-d]pyrimidin-2(1H)-one]
19 |  |  |  |  | > 10000 | CCOc1ccc(N2C(=O)N(c3ccc4nn(C)cc4c3)Cc3nnc(OCC)cc32)cc1 [Example 438]
